According to a melting point compilation (Tetko et al.; mined from patent text by program, amines drawn as free bases though some values may be those of a salt):

With `C=Cc1ccc(OC(=O)c2ccccc2)cc1` as the molecule, how does the melting point read?
The melting point was 75 to 76 °C.

Which melting point does the source give for `CC(C)c1ccc(S(=O)(=O)Nc2cnc(Cl)cc2I)cc1` here?
The melting point was 160 °C.

For `COC(=O)CCc1oc(-n2ccnc2S(C)(=O)=O)nc1-c1ccc(Cl)cc1`, which melting point is on record?
The melting point was 112 to 113 °C.

Which melting point does the source give for `CC(C)=C1NC(=O)c2ccccc2S1` here?
Its melting point is 187 to 188 °C.

Which melting point does the source give for `N#Cc1c[nH]cc1-c1ccc(Cl)cc1C(=O)c1ccccc1Cl` here?
Its melting point is 182 to 184 °C.

Which melting point does the source give for `COc1ccc2c(c1)C(=O)C(=O)N2CCN(C(C)C)C(C)C` here?
The melting point was 81 to 82.5 °C.

For `CC(=O)Nc1ccc(S(=O)(=O)Nc2cc(C)c(S(=O)(=O)C[N+](=O)[O-])c(C)c2)cc1`, which melting point is on record?
The melting point was 209 to 210 °C.

Which melting point does the source give for `OC(CCCN1CCN(c2noc3ccccc23)CC1)c1ccc(F)cc1` (stereo not given) here?
Its melting point is 142 to 144 °C.

Which melting point does the source give for `COc1ccccc1NC(=O)NCc1cccc2c1CN(C1CCC(=O)NC1=O)C2=O` (stereo not given) here?
The melting point was 187 to 189 °C.

For `CCCCCc1ccc2cc(O)ccc2c1`, which melting point is on record?
The melting point was 94 to 95 °C.

For `CCOC(=O)CC(=O)Nc1cccc2ccccc12`, which melting point is on record?
Its melting point is 80 to 81 °C.

With `CC1=C(C)C(=O)C(CCCCC#CCCCC#CCOC(N)=O)=C(C)C1=O` as the molecule, how does the melting point read?
The melting point was 56 to 57 °C.

For `CCOC(=O)c1c(OC)c2cc(Cl)ccc2c(=O)n1C`, which melting point is on record?
Its melting point is 122 to 123 °C.

Which melting point does the source give for `OCC=C(c1ccc(I)cc1)c1ccc(I)cc1` here?
Its melting point is 83 to 85 °C.

For `O=C(O)[C@H]1CCC(=O)[C@@H](n2nc(-c3c(-c4ccccc4)nn4ccccc34)ccc2=O)C1` (relative stereo), which melting point is on record?
Its melting point is 155 to 165 °C.

Which melting point does the source give for `CCOc1cc(OCCCc2cn(-c3ccc(C(F)(F)F)cn3)nc2O)ccc1CCC(=O)O` here?
The melting point was 192 to 194 °C.

For `c1ccc(-c2nc(-c3ccc4cc(OCc5nnn[nH]5)ccc4c3)cs2)cc1`, which melting point is on record?
The melting point was 226 to 228 °C.

For `CCn1cnc2c(Nc3cccc(C#N)c3)nc(Cl)nc21`, which melting point is on record?
The melting point was 189 °C.

Which melting point does the source give for `COC(=O)c1c(Br)ccc2nn(C)cc12` here?
The melting point was 103 to 104 °C.

For `O=S(=O)(Nc1nc2ncc(Cl)cn2n1)c1ccccc1Cl`, which melting point is on record?
The melting point was 256 to 260 °C.

Which melting point does the source give for `COC(=O)c1ccsc1S(=O)(=O)Cl` here?
The melting point was 51 to 54 °C.

For `Cc1ccc(C2CCN(C(=O)Nc3ccc4cc(CN5CCCCC5)ccc4c3)CC2)cc1`, which melting point is on record?
Its melting point is 227 to 228 °C.

For `COC(=O)C=Cc1ccc(OCCc2nc(-c3ccccc3)oc2C)nc1`, which melting point is on record?
Its melting point is 138 to 139 °C.

For `N#Cc1cc(N2CCCCC2)ccc1[N+](=O)[O-]`, which melting point is on record?
The melting point was 126 to 127 °C.

With `COc1ccc(Cl)cc1C1(F)C(=O)Nc2cc(I)ccc21` (stereo not given) as the molecule, how does the melting point read?
Its melting point is 205 to 210 °C.

Which melting point does the source give for `CCN1CCCC1CNC(=O)c1cc(NS(C)(=O)=O)ccc1OC` (stereo not given) here?
Its melting point is 171 to 172 °C.

With `O=c1nc(-c2cccc(CNS(=O)(=O)c3ccccc3)n2)sc2ccccc12` as the molecule, how does the melting point read?
The melting point was 207 to 208 °C.

With `COc1cc2c3c(nc4ccccc4c3c1)-c1ccc(Cl)cc1N2` as the molecule, how does the melting point read?
The melting point was 240 to 242 °C.

With `O=C(O)c1c[nH]c2c1C(=O)CCCC2` as the molecule, how does the melting point read?
Its melting point is 225 to 227 °C.

With `COC(=O)c1ccc(NC(C)=O)c(NC(=O)COC(C)=O)c1` as the molecule, how does the melting point read?
Its melting point is 182 to 186 °C.

With `Cc1c2c(cc3c(=O)c4ccccc4oc13)CC(C(=O)O)O2` (stereo not given) as the molecule, how does the melting point read?
The melting point was 297 to 299 °C.

For `CCn1ncc2c3noc(-c4ccccc4C)c3cnc21`, which melting point is on record?
The melting point was 168 to 170 °C.

For `Cc1cc(O)n2ncc([N+](=O)[O-])c2n1`, which melting point is on record?
The melting point was 290 °C.

Which melting point does the source give for `CCC(CC)O[C@@H]1C=C(C(=O)O)C[C@H](CC(O)CO)[C@H]1NC(C)=O` (stereo not given in full) here?
The melting point was 189 to 190 °C.

For `CCCCCCSC1=CC(=O)NC1=O`, which melting point is on record?
The melting point was 99 to 101 °C.

With `O=C(NCC#Cc1ccc(C#CCNC(=O)OCc2ccccc2)nc1)OCc1ccccc1` as the molecule, how does the melting point read?
Its melting point is 156 to 158 °C.

Which melting point does the source give for `O=C(Nc1nccs1)c1nc(-c2cccc3ccccc23)[nH]c1-c1ccc(CO)cc1` here?
The melting point was 226 to 228 °C.

With `CC(C)c1ccc(C2(O)C(=O)c3ccccc3C2=O)c(OC(=O)C=Cc2ccccc2)c1` as the molecule, how does the melting point read?
Its melting point is 95 to 97 °C.

For `COc1cc2nc(Cl)nc(Cl)c2c(OC)c1OC`, which melting point is on record?
The melting point was 213 to 215 °C.

With `Oc1ccc(CCN2CCC(=C3c4sccc4CCn4ccnc43)CC2)cc1` as the molecule, how does the melting point read?
The melting point was over 200 °C.

With `OC1(c2ccc(F)cc2)CCC2CN(Cc3ccccc3)CCC2C1` (stereo not given) as the molecule, how does the melting point read?
Its melting point is 120 to 122 °C.

With `CN1C(=O)c2ccccc2CC1c1ccc(C(C)(C)C)cc1` (stereo not given) as the molecule, how does the melting point read?
The melting point was 116 to 117 °C.

Which melting point does the source give for `COC(=O)c1cc(NC(=O)C2=C(C)OCCS2)ccc1Cl` here?
The melting point was 115 to 117 °C.

Which melting point does the source give for `CC12CCC3C(CC=C4CCCCC43C)C1CC=C2Br` (stereo not given) here?
The melting point was 109 to 113 °C.

For `COc1ccc2c(c1)C13CCCOC1(C)C(C2)N(C(=O)C1CCC1)CC3` (stereo not given), which melting point is on record?
The melting point was 166 to 167 °C.

With `CC(Oc1ncn(-c2ccc(C(F)(F)F)cc2)n1)C(=O)NC1CC1` (stereo not given) as the molecule, how does the melting point read?
Its melting point is 175 to 177 °C.

With `C[Si](C)(C)c1cc(Cl)sc1C(=O)NCCCl` as the molecule, how does the melting point read?
The melting point was 68 to 72 °C.

For `CN1CCC(C#N)(c2ccc(Cl)cc2F)CC1`, which melting point is on record?
The melting point was 85 to 87 °C.

For `O=C(CCCCCCCCCCCCC(=O)ON1C(=O)CCC1=O)OCc1ccccc1`, which melting point is on record?
The melting point was 61.5 to 62.5 °C.

Which melting point does the source give for `CC(=O)n1nc(SCc2ccccc2)nc1N` here?
Its melting point is 146 °C.

Which melting point does the source give for `CCCNC(=O)C(C)=Cc1ccc2ccn(Cc3ccc(C(=O)O)cc3OC)c2c1` here?
The melting point was 150 to 152 °C.

Which melting point does the source give for `COc1cc(C(=O)N(C(C)C)C2CCCCC2)ccc1Br` here?
The melting point was 104 to 107 °C.

Which melting point does the source give for `CC(=O)Oc1cc(C)cc(C(=O)N[C@@H](Cc2ccccc2)[C@H](O)C(=O)O)c1C` here?
The melting point was 220 to 224 °C.

Which melting point does the source give for `COc1cc(C)c(C(=O)CCCCCCCCCCCCCCCCCO)c(O)c1OC` here?
Its melting point is 101 °C.

With `CCC(CC)Nc1cc(C)nc(Cl)c1C(=O)OC` as the molecule, how does the melting point read?
The melting point was 82 to 84 °C.

With `CC(C)(C(=O)O)c1ccsc1` as the molecule, how does the melting point read?
The melting point was 78 to 80.5 °C.

With `Cn1c(-c2ccccc2)nc(CN2CCN(c3ccc(O)cc3)CC2)cc1=O` as the molecule, how does the melting point read?
Its melting point is 206 to 207 °C.

Which melting point does the source give for `COC(=O)C1CCSc2cc(OC)c(OC)cc2C1=O` (stereo not given) here?
The melting point was 132 to 133 °C.

Which melting point does the source give for `Cc1noc2cc3c(cc12)C1(CO3)C(=O)N(Cc2cccnc2)c2ccccc21` (stereo not given) here?
Its melting point is 176 to 177 °C.

For `Nc1nc2ccc(CCN3CCC(Oc4ccccc4)CC3)cc2s1`, which melting point is on record?
The melting point was 164 to 167 °C.

Which melting point does the source give for `COc1ccccc1NS(=O)(=O)c1ccc(F)cc1` here?
Its melting point is 101 to 102 °C.

Which melting point does the source give for `C=CCc1cc(OCC(=O)OCC)ccc1O` here?
Its melting point is 52.8 °C.

For `Cc1nn2c(-c3cccc(NC(=O)OC(C)C)c3)ccnc2c1C(=O)c1cccs1`, which melting point is on record?
The melting point was 186 to 188 °C.

Which melting point does the source give for `C[C@H](N)Cn1ncc2ccc3oc(C(N)=O)nc3c21` here?
The melting point was 60 to 65 °C.

For `COC(CC1OCC(Br)([N+](=O)[O-])CO1)OC` (stereo not given), which melting point is on record?
Its melting point is 95 to 97 °C.

Which melting point does the source give for `CC(=O)Oc1c(C)cc(C)cc1CCc1cc(C)cc(C)c1OC(C)=O` here?
The melting point was 130 to 131 °C.

For `CCN(CC)CCOCCC1CCN(C(=O)N2c3cc(Cl)ccc3C(=O)Nc3cccnc32)CC1`, which melting point is on record?
The melting point was 145 to 146 °C.

Which melting point does the source give for `CN(Cc1cccc2c1C(=O)N(C1CCC(=O)NC1=O)C2=O)C(=O)Nc1cccc(Cl)c1` (stereo not given) here?
The melting point was 193 to 195 °C.

With `CC(=O)Nc1cc(N)ccc1OCCCN` as the molecule, how does the melting point read?
The melting point was 102 to 106 °C.

For `CCCCCCc1cc2c(cc1OCCCC(=O)O)C(=O)CCC2`, which melting point is on record?
The melting point was 81 °C.

For `Nc1cccc(F)c1O`, which melting point is on record?
The melting point was 115 °C.

For `COc1ncc(C(F)(F)F)cc1-c1cccn2nc(Nc3ccc(C4CCNCC4)cc3)nc12`, which melting point is on record?
The melting point was 106 to 108 °C.

For `CS(=O)(=O)Nc1ccc(CCC(=O)O)cc1`, which melting point is on record?
The melting point was 152 to 154 °C.

Which melting point does the source give for `CCC(Oc1ccccc1C#N)C(=O)OC1CC(O)C=C2C=CC(C)C(CCC3CC(O)CC(=O)O3)C21` (mixture of isomers) here?
The melting point was 95 to 97 °C.

For `CC(C)[C@H]1CC[C@H](C(=O)N[C@H](Cc2ccc(OCc3ccc(C(F)(F)F)cc3)cc2)C(=O)O)CC1`, which melting point is on record?
The melting point was 171 to 172 °C.
